Measured values published in patent US20200002377A1, “COMPOUNDS USEFUL FOR THE TREATMENT AND/OR CARE OF THE SKIN, HAIR, NAILS AND/OR MUCOUS MEMBRANES” (LUBRIZOL ADVANCED MATERIALS, INC., priority 2016, published 2020).

What was measured:
[1] = tested on: tight junction (TJ) barrier in reconstructed human epidermis (RHE); assay: TJ permeability assay, biotin dye penetration in RHE with SDS; format: cell-based; conditions: 24 hours
Description: TJ permeability assay using surface biotinylation technique was performed in incubated reconstructed human epidermis (RHE) with EZ-UN Sulfo-NHS-LC-LC-Biotin from the dermal side. The aim of this study is to investigate the ability of peptides of the invention to enhance the barrier function by inhibiting diffusion of the dye through stratum granulosum in presence of sodium dodecyl sulfate (SDS) which causes functional deterioration of TJs.
SkinEthic human tissue models (EpiSkin) are removed from their agarose-nutrient solution in a multiwell plate immediately after arrival and are placed in a 6-well plate in which each well has previously been filled with SkinEthic Growth Medium (EpiSkin). After overnight incubation at 37° C., 5% CO2, tissue models are treated with 50 μg/ml of peptide Ac-Glu-Glu-Met-Gln-Arg-Arg-Ala-NH2 (PEP-2) and a 0.02 mg/ml sodium dodecyl sulfate (SDS, Sigma) solution in growth medium, (1 ml/well). […]
Microscopical observations are performed with a Zeiss fluorescence microscope and photographs of each condition are taken with the associated camera. Fluorescence images of biotin are quantified as the product of its area and the intensity mean value of channel ‘EGFP’ Green (excitation: 488 nm and emission: 509 nm) and normalized by basal conditions. At least 12 representative images from each condition are collected and analyzed with the ZEN software (Zeiss). […]

[2] = tested on: stratum corneum barrier in reconstructed human epidermis (RHE); assay: Toluidine blue diffusion assay in RHE with SDS; format: cell-based; parameters: key: 4: Strong; 3: Clear; 2: Moderate; 1: Slight; conditions: 24 h, SDS 0.02 mg/ml on top layer, peptide 50 μg/ml + SDS
Description: The SkinEthic human tissue models (EpiSkin) are removed from their agarose-nutrient solution in the multiwell plate immediately after arrival and are placed in a 6-well plate in which each well has previously been filled with SkinEthic Growth Medium (EpiSkin). After overnight incubation at 37° C., 5% CO2, the top layer of tissue model is treated with 100 μl of a 50 μg/ml solution of peptide Ac-Glu-Glu-Met-Gln-Arg-Arg-Ala-NH2 (PEP-2) in a 0.02 mg/ml sodium dodecyl sulfate (SDS, Sigma) solution in growth medium and dermal side of tissue model is treated with 1 ml of a 50 μg/ml solution of the same peptide in growth medium. The top layer and dermal side of a tissue model is treated with growth medium as basal condition. In another tissue model, its top layer is treated with a 0.02 mg/ml SDS solution in growth medium while its dermal side is treated with growth medium alone, both in absence of peptide, for its use as a positive control. All incubations are performed at 37° C. and 5% CO2 for 24 h.
After the 24-hours treatment, the top layer of tissue models are further treated with 200 μl of methanol for 2 min at room temperature and, after that, they are rinsed twice with 200 μl of phosphate-buffered saline (PBS, Sigma). […] At least 12 representative images from each condition are collected and scored according to the ranking described in Table 14. […]

[3] = tested on: Nuclear Factor Kappa B subunit 1 (NFKB1); assay: Innate immune response gene expression in HEKa, real time PCR array; format: cell-based, human; conditions: 50 μg/ml, 24 h
Description: (§1) HEKa cells (Life Technologies) are seeded at 6.0×10^5 cells/well in 6-well plates and incubated in culture medium Epillfe™ with defined Growth Supplement (EDGS, Life Technologies), at 37° C. in a water-saturated atmosphere of 95% air and 5% CO2. After 24 hours of incubation under these conditions, medium is removed and cells are incubated with 50 μg/ml (w/v) of a peptide of the invention (see Table 16) in fresh culture medium keeping two wells where HEKa cells are incubated with medium only (basal conditions) at 37° C. and 5% CO2.
After 24 h of incubation, the cells are lysed directly in the wells following the protocol described on the RNeasy™ Mini kit (Qiagen) according to the manufacturer's protocol. The lysed cells are homogenized and the RNases are inactivated. The genomic DNA is removed from the samples by using gDNA Eliminator spin columns (Qiagen). Then the samples are passed through special RNA binding columns (Qiagen) and, after several microcentrifugation washes to eliminate contaminants and impurities, the purified RNA is eluted with 50 μl of ultrapure water. Quantification and analysis of purity of RNA samples are performed after RNA elution with a biophotometer (Eppendorf). 1 μg of high-quality RNA is retrotranscribed with iScript™ advanced (BioRad) in a final volume of 20 μl·Complete reaction mix is incubated in a thermal cycler (Eppendorf) at 42° C. for 30 minutes, and the reactions are stopped at 85° C. for 5 minutes. Complementary DNA is amplified by qPCR in a real-time PCR thermocycler (BioRad) using SYBR®Green supermix (BioRad) and a customized plate for use with SYBR®Green (BioRad). SYBR®Green binds to double-stranded DNA molecules and emits fluorescence which is quantified and is proportional to the amount of the product in the PCR reaction. Cycling conditions in BioRad CFX96™ instrument are 95° C. for 3 minutes, followed by 40 cycles of denaturing at 95° C. for 5 seconds, annealing and elongation at 60° C. for 30 seconds. GAPDH (Glyceraldehyde 3-phosphate dehydrogenase), TBP (TATA box binding protein) and HRPT1 (hypoxanthine phosphoribosyltransferase 1) are used as endogenous controls. Fold change relative to the expression of the sample genes and reference genes is calculated using normalized expression (ΔΔ(Ct)) method with default threshold values using CFX Manager Software (BioRad).
(§2) Genes analyzed are Chemokine (C-C motif) Ligand 5 (CCL5), Myeloid Differentiation primary response gene 88 (MyD88), Nuclear Factor Kappa B subunit 1 (NFKB1) and interferon Regulatory Factor 3 (IRF3).

[4] = tested on: Staphylococcus epidermidis; assay: Adherence of Staphylococcus epidermidis in keratinocytes (HaCaT) in competition with S. aureus bioparticles; format: cell-based; conditions: 50 μg/ml, 24 h, basal = 0
Description: After that treatment, cells are washed with phosphate-buffered saline (PBS, Sigma) and are then incubated with a solution of Staphylococcus epidermidis (ATCC®12228™, Culture Collections) treated with green-fluorescence calcein AM (Life technologic) and Alexa Fluor 594™ Bioparticles Staphylococcus aureus (ThermoFisher) in PBS for 30 minutes at 37° C. and protected from light. At the end of the incubation period, cells are washed with PBS and fixed in 4% (v/v) paraformaldehyde (PFA, Sigma) for 30 minutes. After rinsing with PBS, the nuclei are stained with Hoechst 33342, trihydrochloride trihydrate (ThermoFisher) in PBS for 10 minutes before analysis.
Cellular imaging is performed by fluorescence microscopy using the Operetta® High Content Imaging System (PerkinElmer). From each fluorescence image, Staphylococcus epidermidis is quantified as a number of spots and normalized against the number of keratinocyte nuclei and the total bacteria number (understood as the addition of detected S. epidermidis spots and S. aureus bioparticles). Each value obtained is normalized respect to basal conditions (non-treated keratinocytes). An image is taken in three different fields per well. 12 representative images from each condition are analyzed with Harmony software (PerkinElmer).
The normalized percentage of Staphylococcus epidermidis respect to basal conditions in treated keratinocytes is represented in Table 17.

Claudin 1 (CLDN1) = assay: Tight junction gene expression in HEKa, real time PCR array; conditions: 50 μg/ml, 24 hours
Description: (§3) HEKa cells (Life Technologies) are seeded at 6.0×10^5 cells/well in 6-well plates and incubated in culture medium Epilife™ with defined Growth Supplement (EDGS, Life Technologies) at 37° C. in a water-saturated atmosphere of 95% air and 5% CO2. After 24 hours of incubation under these conditions, medium is removed and cells are incubated with 50 μg/ml of a peptide of the invention (see Table 12) in fresh culture medium, except for two wells where HEKa cells are incubated with medium only (basal conditions), at 37° C. and 5% CO2.
(§4) After 24 hours of incubation, the cells are lysed directly in the wells following the protocol described on the RNeasy™ Mini kit (Qiagen) according to the manufacturer's protocol. The lysed cells are homogenized and the Rnases are inactivated. The genomic DNA is removed from the samples by using gDNA Eliminator spin columns (Qiagen). […] Quantification and analysis of purity of RNA samples are performed after RNA elution with a biophotometer (Eppendorf). […] SYBR Green binds to double-stranded DNA molecules and emits fluorescence which is quantified and is proportional to the amount of the product in the PCR reaction. […] Fold change relative to the expression of the sample genes and reference genes is calculated using normalized expression (ΔΔ(Ct)) method with default threshold values using CFX Manager Software (BioRad).

[5] = tested on: Tight Junction Protein 1 (TJP1); assay: as above; conditions: 50 μg/ml, 24 hours
Description: as §3, §4

[6] = tested on: Reconstructed Human Epidermis (RHE); assay: Lipidomic profile (UPLC-MS) of in vitro epidermal model; format: cell-based; conditions: 50 μg/ml, 24 hours, vs basal conditions
Description: The SkinEthic human tissue models (EpiSkin™) are removed from their agarose-nutrient solution in the multiwell plate immediately after arrival and are placed in a 6-well plate in which each well has previously been filled with SkinEthic Growth Medium (EpiSkin™). After overnight incubation at 37° C., 5% CO2, Reconstructed Human Epidermis (RHE) are treated with 50 μg/ml of peptides Ac-Glu-Glu-Met-Gln-Arg-Arg-NH2 (PEP-1), Ac-Glu-Glu-Met-Gln-Arg-Arg-Ala-NH2 (PEP-2) or Ac-Glu-Glu-Met-Gln-Arg-Arg-Ala-Asp-NH2 (PEP-3) or medium (basal conditions) for 24 hours at 37° C. and 5% CO2. After the 24 hours treatment, RHE are frozen and stored at −20° C. Each treatment is applied to five RHE per condition.
Epidermal membrane model samples are thawed and removed from the inserts using a scalpel and transferred to homogenization tubes. Samples are mixed with sodium chloride (50 mM) and chloroform/methanol (2/1) (v:v) and homogenized. The extraction solvent is spiked with metabolites not detected in unspiked human serum extracts. After homogenizing the samples, extracts are incubated for 1 hour at −20° C. and centrifuged at 18,000×g for 15 minutes. The organic phase is then collected and dried under vacuum. Dried extracts are finally reconstituted in acetonitrile/isopropanol (1/1) (v:v), centrifuged at 18,000×g for 5 minutes and transferred to vials for UPLCs-MS analysis.
All data are processed using the TargetLynx™ application manager for MassLynx™ 4.1 software (Waters Corp., Milford, USA). A set of predefined retention time, mass-to-charge ratio pairs, Rt-m/z, corresponding to metabolites included in the analysis are fed into the program. Associated extracted ion chromatograms (mass tolerance window=0.05 Da) are then peak-detected and noise-reduced in both the LC and MS domains such that only true metabolite related features are processed by the software. A list of chromatographic peak areas is then generated for each sample injection and value respect to basal conditions is calculated.
Average of five values obtained for each peptide in relation to those obtained for basal conditions (without peptide in the medium) are shown in Table 11.

[7] = tested on: interferon Regulatory Factor 3 (IRF3); assay: Innate immune response gene expression in HEKa, real time PCR array; conditions: 50 μg/ml, 24 h
Description: as §1
After 24 h of incubation, the cells are lysed directly in the wells following the protocol described on the RNeasy™ Mini kit (Qiagen) according to the manufacturer's protocol. […] Quantification and analysis of purity of RNA samples are performed after RNA elution with a biophotometer (Eppendorf). […] SYBR®Green binds to double-stranded DNA molecules and emits fluorescence which is quantified and is proportional to the amount of the product in the PCR reaction. […] Fold change relative to the expression of the sample genes and reference genes is calculated using normalized expression (ΔΔ(Ct)) method with default threshold values using CFX Manager Software (BioRad).
as §2

Q: CCCCCCCCCCCCOS(=O)(=O)[O-].[Na+] [SDS, sodium dodecyl sulfate, reference compound] was tested. Which “Fold change with respect to basal condition (biotin fluorescence)” value ([1]; treatment from dermal side) did it give?
A: The value was 1.90.

Q: And the “Total score (Toluidine Blue staining)” value [2]?
A: The value was 4.

Q: Which “NFKB1 fold induction respect to basal conditions” value [3] does the source give for “Ac-EEMQRKAD-NH2 [PEP-14, Ac-Glu-Glu-Met-Gln-Arg-Lys-Ala-Asp-NH2]” here?
A: The value was 2.59.

Q: And the “S. epidermidis (%), normalized percentage respect to basal conditions” value [4]?
A: Its value is 22.18%.

Q: What about the “CLDN1 fold induction respect to basal conditions” value (Claudin 1 (CLDN1)) of the same molecule?
A: Its value is 2.59.

Q: Which results are given for “Ac-EEMQRR-OH [PEP-61, Ac-Glu-Glu-Met-Gln-Arg-Arg-OH]”?
A: NFKB1 fold induction respect to basal conditions [3]: 1.71; S. epidermidis (%), normalized percentage respect to basal conditions [4]: 3.08%; TJP1 fold induction respect to basal conditions [5]: 1.71

Q: “Ac-EEMQRRA-NH2 [PEP-2, Ac-Glu-Glu-Met-Gln-Arg-Arg-Ala-NH2]” was tested. Which “Cer_AP48 N-(alpha-hydroxyacyl) phytosphingosines” value [6] did it give?
A: The value was 1.37 fold change.

Q: What about the “Cer_NP48 N-acyl phytosphingosines” value [6] of the same molecule?
A: Its value is 1.24 fold change.

Q: What about the “Cer_NP49 N-acyl phytosphingosines” value [6] of the same molecule?
A: The value was 1.23 fold change.

Q: And the “Cer_NP50 N-acyl phytosphingosines” value [6]?
A: The value was 1.23 fold change.

Q: And the “Cer_NP51 N-acyl phytosphingosines” value [6]?
A: The value was 1.19 fold change.

Q: What about the “Cer_NS50 N-acyl sphingosines” value [6] of the same molecule?
A: The value was 1.18 fold change.

Q: What about the “Cer_NS51 N-acyl sphingosines” value [6] of the same molecule?
A: Its value is 1.13 fold change.

Q: And the “Cer_NS52 N-acyl sphingosines” value [6]?
A: Its value is 1.37 fold change.

Q: And the “Cer_NdS47 N-acyl dihydrosphingosines” value [6]?
A: The value was 1.10 fold change.

Q: And the “Cer_NdS48 N-acyl dihydrosphingosines” value [6]?
A: Its value is 1.23 fold change.

Q: What about the “Cer_NdS49 N-acyl dihydrosphingosines” value [6] of the same molecule?
A: The value was 1.46 fold change.

Q: And the “Cer_NdS50 N-acyl dihydrosphingosines” value [6]?
A: The value was 1.50 fold change.

Q: And the “penetration of biotin to stratum corneum (result in words)” value ([1]; peptide 50 μg/ml with 0.02 mg/ml SDS)?
A: The value was “able to strengthen the tight junction (TJ) barrier”.

Q: And the “Total score (Toluidine Blue staining)” value [2]?
A: The value was 2.

Q: And the “NFKB1 fold induction respect to basal conditions” value [3]?
A: Its value is 2.19.

Q: And the “S. epidermidis (%), normalized percentage respect to basal conditions” value [4]?
A: Its value is 24.69%.

Q: Which “Cer_AP48 N-(alpha-hydroxyacyl) phytosphingosines” value [6] does the source give for “Ac-EEMQRRAD-NH2 [PEP-3, Ac-Glu-Glu-Met-Gln-Arg-Arg-Ala-Asp-NH2]” here?
A: The value was 1.15 fold change.

Q: And the “Cer_NP48 N-acyl phytosphingosines” value [6]?
A: Its value is 1.19 fold change.

Q: And the “Cer_NP49 N-acyl phytosphingosines” value [6]?
A: The value was 1.14 fold change.

Q: And the “Cer_NP50 N-acyl phytosphingosines” value [6]?
A: The value was 1.30 fold change.

Q: What about the “Cer_NP51 N-acyl phytosphingosines” value [6] of the same molecule?
A: The value was 1.24 fold change.

Q: What about the “Cer_NS50 N-acyl sphingosines” value [6] of the same molecule?
A: The value was 1.14 fold change.

Q: And the “Cer_NS51 N-acyl sphingosines” value [6]?
A: The value was 1.10 fold change.

Q: And the “Cer_NS52 N-acyl sphingosines” value [6]?
A: Its value is 1.30 fold change.

Q: What about the “Cer_NdS47 N-acyl dihydrosphingosines” value [6] of the same molecule?
A: Its value is 1.20 fold change.

Q: And the “Cer_NdS48 N-acyl dihydrosphingosines” value [6]?
A: Its value is 1.34 fold change.

Q: What about the “Cer_NdS49 N-acyl dihydrosphingosines” value [6] of the same molecule?
A: Its value is 1.43 fold change.

Q: What about the “Cer_NdS50 N-acyl dihydrosphingosines” value [6] of the same molecule?
A: Its value is 1.68 fold change.

Q: And the “NFKB1 fold induction respect to basal conditions” value [3]?
A: Its value is 2.04.

Q: And the “S. epidermidis (%), normalized percentage respect to basal conditions” value [4]?
A: Its value is 11.46%.

Q: What does the source list for “Ac-EEMQRRED-NH2 [PEP-23, Ac-Glu-Glu-Met-Gln-Arg-Arg-Glu-Asp-NH2]”?
A: NFKB1 fold induction respect to basal conditions [3]: 2.58; S. epidermidis (%), normalized percentage respect to basal conditions [4]: 20.10%; CLDN1 fold induction respect to basal conditions (Claudin 1 (CLDN1)): 2.58

Q: “Ac-EQMQRR-NH2 [PEP-50, Ac-Glu-Gln-Met-Gln-Arg-Arg-NH2]” was tested. Which “NFKB1 fold induction respect to basal conditions” value [3] did it give?
A: The value was 2.25.

Q: What about the “S. epidermidis (%), normalized percentage respect to basal conditions” value [4] of the same molecule?
A: The value was 4.14%.

Q: And the “IRF3 fold induction respect to basal conditions” value [7]?
A: Its value is 2.25.

Q: Which results are given for “H-EEMQRH-NH2 [PEP-57, H-Glu-Glu-Met-Gln-Arg-His-NH2]”?
A: NFKB1 fold induction respect to basal conditions [3]: 2.49; S. epidermidis (%), normalized percentage respect to basal conditions [4]: 13.57%; IRF3 fold induction respect to basal conditions [7]: 2.49
